From ChEMBL document CHEMBL1201862, “PubChem BioAssay data set” (2004)
The source made the active and inactive calls.

Key:
[1] = inhibitors of firefly luciferase expression or activity, dose response, H4 neuroglioma cells, luminescence (AID 1990); format: functional, cell-based
[2] = inhibitors of SNCA 5'UTR-driven translation, confirmation, luminescence, H4 neuroglioblastoma cells, dose confirmation (AID 2454); format: functional, cell-based;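 further: H4 neuroglioblastoma cells carrying an alpha-synuclein 5'UTR luciferase reporter; potency for inhibition of the luciferase signal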
[3] = cytotoxicity toward DRD oncogenic fibroblasts, dose response, cell-based, non-viral oncogenic, luminescence (AID 1934); format: functional; conditions: Homo sapiens
[4] = test system: BJ; test: cytotoxicity toward BJ-TERT fibroblasts, dose response, cell-based, RAS-independent, luminescence (AID 1933); format: functional; conditions: Homo sapiens
[5] = Luminescence Cell-Based Dose HTS Response to Identify Inhibitors of 5'UTR Stem-Loop Driven Prion Protein mRNA Translation in H4-C Neuroglioblastoma Cells. [Related pubchem assays (depositor defined):AID1814, AID1827]; format: functional
[6] = Luminescence Cell-Based Dose Response HTS to Identify Activators of 5'UTR Stem-Loop Driven Prion Protein mRNA Translation in H4-C Neuroglioblastoma Cells. [Related pubchem assays: 1829 (Project Summary), 1814 (Primary HTS)]; format: functional
[7] = Luminescence Cell-Based Dose Retest to Confirm Activators of 5'UTR Stem-Loop Driven Alpha-Synuclein mRNA Translation in H4 Neuroglioblastoma Cells. [Related pubchem assays (depositor defined):AID1813, AID1829]; format: functional
[8] = luciferase reporter signal reduction – luminescence, H4-C neuroglioblastoma cells, dose response (AID 2458); format: functional, cell-based;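 further: H4 neuroglioblastoma cells stably carrying a luciferase reporter gene fusion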
[9] = Luminescence Cell-Based Dose Response HTS to Identify Activators of Luciferase Translation or Activity in H4-C Neuroglioblastoma Cells. [Related pubchem assays: 1829 (Project Summary), 1814 (Primary HTS)]; format: functional
[10] = test system: BJ; test: cytotoxicity toward BJ-TERT-LT-ST fibroblasts, dose response, cell-based, RAS-independent, luminescence (AID 1935); format: functional; conditions: Homo sapiens;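 further: BJ fibroblasts immortalized with TERT plus LT and ST oncogenes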
[11] = Luminescence Cell-Based Dose Confirmation HTS to Identify Inhibitors of 5'UTR Stem-Loop Driven Alpha-Synuclein mRNA Translation in H4 Neuroglioblastoma Cells. [Related pubchem assays: 1827 (Project Summary), 1813 (Primary HTS)]; format: functional
[12] = cells; format: functional, cell-based
[13] = Luminescence Cell-Based Dose Response HTS to Identify Inhibitors of Luciferase Translation or Activity in H4-C Neuroglioblastoma Cells. [Related pubchem assays: 1813 (Primary HTS), 1827 (Project Summary)]; format: functional
[14] = Luminescence Cell-Based Dose Response HTS to Identify Inhibitors of 5'UTR Stem-Loop Driven Prion Protein mRNA Translation in H4 Neuroglioblastoma Cells. [Related pubchem assays: 1827 (Project Summary), 1813 (Primary HTS)]; format: functional
[15] = test system: BJ; test: cells; format: functional, cell-based; conditions: Homo sapiens
[16] = inhibitors of SNCA 5'UTR-driven reporter translation, confirmation, H4 neuroglioma cells, luminescence (AID 1988); format: functional, cell-based
[17] = target: E3 ubiquitin-protein ligase Mdm2/Protein Mdm4 (Homo sapiens, UniProt O15151+Q00987); test: Mdm2-MdmX interaction inhibitors, dose response, luminescence detection (AID 504593); format: functional
[18] = cytotoxicity in HEK-293T cells, dose response, cytotoxicity control for TCR NF-kB inhibitor project, luminescence, T-cell screen hits (AID 489026); format: functional, cell-based;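 further: cells exposed to compound about 14 hours before the viability readout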
[19] = Luminescence Cell-Based Dose Retest to Confirm Inhibitors of Cancer Stem Cells. [Related pubchem assays (depositor defined):AID2717, AID2721]; format: functional; conditions: Homo sapiens
[20] = non-specific cell cytotoxicity, dose response, cytotoxicity control for PAX8 inhibitor project, plate reader, dry powder samples (AID 743021); format: functional, cell-based
[21] = target: Multidrug resistance protein CDR2 (Candida albicans (strain SC5314 / ATCC MYA-2876) (Yeast), UniProt P78595); test: CaCDR2 efflux pump inhibitors in yeast, dose response, S. cerevisiae AD1-8u, singleplex, Cherry Pick2 set (AID 623994); format: functional; conditions: read-out: EC50_MICROM
[22] = target: Integrin alpha-4 (Homo sapiens, UniProt P13612); test: VLA-4 integrin allosteric ligands, SAR follow-up, cell-based, LIBS antibody binding, flow cytometry (AID 488791); format: functional
[23] = test system: INS1; test: beta cell apoptosis inhibitors, cytokine rescue, dose response, luminescence, retest (AID 449756); format: functional, cell-based; conditions: Rattus norvegicus;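 further: cell death triggered by IL-1 beta plus TNF-alpha plus IFN-gamma mixture; protective hits raise ATP signal compared with cytokine alone wells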
[24] = target: Melanocortin receptor 4 (Homo sapiens, UniProt P32245); format: functional, cell-based;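 further: Cell-based assay with luminescence read-out, confirmatory dose-response testing for agonist activity of biased ligands at MC4R; human U2OS cells with tagged receptor and beta-arrestin; potency of agonists that increase receptor coupling to beta-arrestin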
[25] = target: Paired box protein Pax-8 (Homo sapiens, UniProt Q06710); test: inhibitors of PAX8-driven TPO luciferase reporter, dose response, RMG-I cells, cherry-pick (AID 687027); format: functional, cell-based;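 further: luciferase reporter driven by Pax8 target thyroperoxidase promoter measured by SteadyGlo luminescence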
[26] = target: T1, Ubiquitin-conjugating enzyme E2 N (Homo sapiens, UniProt P61088); format: functional;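 further: Dose-response confirmation in a TR-FRET assay detecting UBC13-driven polyubiquitin chain formation, inhibition measured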
T1 sequence (P61088 whole entry): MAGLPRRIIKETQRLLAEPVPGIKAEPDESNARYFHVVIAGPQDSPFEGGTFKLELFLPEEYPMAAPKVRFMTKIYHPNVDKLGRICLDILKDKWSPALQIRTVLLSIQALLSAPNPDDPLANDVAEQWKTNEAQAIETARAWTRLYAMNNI

[27] = test system: T-cell; test: inhibitors of CD8+ T cell–vesicle binding, dose response, mouse 2C CD8+ T cells, flow cytometry (AID 485284); format: functional
[28] = test system: Vero; test: cytotoxicity of synthesized analogs in Vero 76, SAR follow-up, cytotoxicity control for West Nile virus antiviral project, Vero 76 cells (AID 2414); format: functional; conditions: Chlorocebus sabaeus
[29] = A Cell Based Assay for the Identification of Probe candidate Compounds with Anti- Venezuelan Equine Encephalitis virus. [Related pubchem assays: 2409, 2419, 1621, 2238, 2405, 2024, 2065, 2402, 2414, 1635, 1650, 2244 ]; format: functional
[30] = test system: Vero; test: cytotoxicity of synthesized analogs in Vero cells, SAR follow-up, cytotoxicity control for West Nile virus antiviral project, cell-based, set II (AID 2402); format: functional; conditions: Chlorocebus sabaeus
[31] = test system: Vero; test: West Nile virus CPE inhibition, SAR follow-up, cell-based, synthesized analogs (AID 2238); format: functional; conditions: Chlorocebus sabaeus
[32] = test system: Vero; test: Vero E6 cell cytotoxicity, SAR follow-up, cytotoxicity control for West Nile virus antiviral project, synthesized analogs (AID 2244); format: functional; conditions: Chlorocebus sabaeus
[33] = target: Prothrombin (Bos taurus, UniProt P00735); test: thrombin inhibition, dose response, biochemical, fluorescence polarization, uHTS hits (AID 602369); format: functional
[34] = target: T2, Kappa-type opioid receptor (Homo sapiens, UniProt P41145); format: functional
[35] = target: 26S proteasome non-ATPase regulatory subunit 14 (Homo sapiens, UniProt O00487); test: inhibition of proteasome subunit RPN11 – biochemical, fluorescence polarization, uHTS hits, confirmation (AID 602368); format: functional
[36] = target: Beta-galactosidase (Escherichia coli, UniProt Q8VNN2); format: functional
[37] = Counterscreen for IDE inhibitors: Luminescence-based cell-based high throughput dose response assay to identify compounds that are cytotoxic to HEK cells. [Related pubchem assays: 434962 (Primary screen (IDE inhibitors in singlicate)), 449730 (Counterscreen (Cytotoxicity in triplicate)), 435028 (Confirmation (IDE inhibitors in triplicate)) …; format: functional; conditions: HEK293
[38] = target: T3, Insulin-degrading enzyme (Homo sapiens, UniProt P14735); test: Dose Response: Fluorescence polarization-based cell-based high throughput dose response assay for inhibitors of insulin-degrading enzyme (IDE). [Related pubchem assays: 434962 (Primary screen (IDE inhibitors in singlicate)), 449730 (Counterscreen (Cytotoxicity in triplicate)), 435028 (Confirmation (IDE inhibitors in triplicate)), 434984 (Summary …; format: functional
T3 sequence (P14735 whole entry): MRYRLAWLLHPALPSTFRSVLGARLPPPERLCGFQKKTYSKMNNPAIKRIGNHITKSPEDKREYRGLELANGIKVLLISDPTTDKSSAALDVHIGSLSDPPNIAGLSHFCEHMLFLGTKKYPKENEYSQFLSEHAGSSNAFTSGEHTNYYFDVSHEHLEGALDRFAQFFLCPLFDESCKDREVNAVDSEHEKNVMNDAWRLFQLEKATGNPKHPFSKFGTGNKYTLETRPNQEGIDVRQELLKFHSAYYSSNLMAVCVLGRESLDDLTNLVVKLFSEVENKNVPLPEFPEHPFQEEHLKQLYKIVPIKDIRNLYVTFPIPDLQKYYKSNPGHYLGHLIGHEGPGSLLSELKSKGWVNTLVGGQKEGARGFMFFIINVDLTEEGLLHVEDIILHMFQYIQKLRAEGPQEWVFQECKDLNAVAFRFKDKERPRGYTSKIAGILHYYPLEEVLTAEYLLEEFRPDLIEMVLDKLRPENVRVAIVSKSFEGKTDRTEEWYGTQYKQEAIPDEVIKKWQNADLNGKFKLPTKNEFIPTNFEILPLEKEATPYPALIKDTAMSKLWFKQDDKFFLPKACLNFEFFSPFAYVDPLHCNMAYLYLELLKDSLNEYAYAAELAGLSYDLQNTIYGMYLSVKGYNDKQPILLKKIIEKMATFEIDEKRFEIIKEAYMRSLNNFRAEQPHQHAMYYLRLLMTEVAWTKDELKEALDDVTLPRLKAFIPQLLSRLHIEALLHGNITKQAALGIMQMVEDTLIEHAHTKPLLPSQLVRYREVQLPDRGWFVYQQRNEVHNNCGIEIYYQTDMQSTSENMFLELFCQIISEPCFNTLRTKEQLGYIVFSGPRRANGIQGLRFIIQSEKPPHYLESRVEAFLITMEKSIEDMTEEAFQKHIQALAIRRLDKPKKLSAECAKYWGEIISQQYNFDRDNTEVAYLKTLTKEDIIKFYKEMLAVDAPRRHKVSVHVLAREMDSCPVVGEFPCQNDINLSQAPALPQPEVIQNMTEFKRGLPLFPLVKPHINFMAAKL

[39] = target: T4, Rac GTPase-activating protein 1 (Homo sapiens, UniProt Q9H0H5); test: MgcRacGAP GTPase-activating activity inhibitors, confirmation, biochemical, ADP Hunter fluorescence, primary and confirmatory (AID 624330); format: functional
T4 sequence (Q9H0H5 whole entry): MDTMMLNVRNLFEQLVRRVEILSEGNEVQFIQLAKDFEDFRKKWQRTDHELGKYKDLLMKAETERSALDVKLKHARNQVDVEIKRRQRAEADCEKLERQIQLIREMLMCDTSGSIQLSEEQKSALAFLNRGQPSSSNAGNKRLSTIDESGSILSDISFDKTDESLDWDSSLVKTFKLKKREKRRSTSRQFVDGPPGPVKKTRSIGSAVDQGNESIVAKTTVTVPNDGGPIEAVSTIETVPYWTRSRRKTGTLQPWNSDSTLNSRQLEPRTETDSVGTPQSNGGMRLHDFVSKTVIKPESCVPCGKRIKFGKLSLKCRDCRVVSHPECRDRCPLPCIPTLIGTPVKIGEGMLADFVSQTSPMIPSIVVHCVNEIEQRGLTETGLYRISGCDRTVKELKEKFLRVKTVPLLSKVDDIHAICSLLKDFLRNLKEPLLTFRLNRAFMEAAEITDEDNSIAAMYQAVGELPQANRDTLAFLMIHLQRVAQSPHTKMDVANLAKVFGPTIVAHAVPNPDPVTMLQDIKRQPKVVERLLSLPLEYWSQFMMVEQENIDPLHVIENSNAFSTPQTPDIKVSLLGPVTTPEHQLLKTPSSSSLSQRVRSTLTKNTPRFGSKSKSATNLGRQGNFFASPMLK

[40] = target: T2, Kappa-type opioid receptor; format: functional; remark: listed apart in the source
[41] = target: 72 kDa type IV collagenase (Homo sapiens, UniProt P08253); test: Dose Response validation of uHTS RPN11 inhibitor hits using a MMP-2 Fluorescence assay.; format: functional

T2 sequence (P41145 whole entry): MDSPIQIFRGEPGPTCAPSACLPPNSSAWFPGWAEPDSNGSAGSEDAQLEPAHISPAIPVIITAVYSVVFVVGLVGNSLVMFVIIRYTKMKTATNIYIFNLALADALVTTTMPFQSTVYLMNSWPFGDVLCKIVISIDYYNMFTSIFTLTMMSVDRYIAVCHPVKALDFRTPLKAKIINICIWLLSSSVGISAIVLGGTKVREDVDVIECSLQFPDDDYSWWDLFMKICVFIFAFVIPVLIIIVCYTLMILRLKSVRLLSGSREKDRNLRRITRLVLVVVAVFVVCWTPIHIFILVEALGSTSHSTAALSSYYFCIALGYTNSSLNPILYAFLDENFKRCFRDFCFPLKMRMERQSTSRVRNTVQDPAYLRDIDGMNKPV
Chain of Paired box protein Pax-8 (Q06710 whole entry): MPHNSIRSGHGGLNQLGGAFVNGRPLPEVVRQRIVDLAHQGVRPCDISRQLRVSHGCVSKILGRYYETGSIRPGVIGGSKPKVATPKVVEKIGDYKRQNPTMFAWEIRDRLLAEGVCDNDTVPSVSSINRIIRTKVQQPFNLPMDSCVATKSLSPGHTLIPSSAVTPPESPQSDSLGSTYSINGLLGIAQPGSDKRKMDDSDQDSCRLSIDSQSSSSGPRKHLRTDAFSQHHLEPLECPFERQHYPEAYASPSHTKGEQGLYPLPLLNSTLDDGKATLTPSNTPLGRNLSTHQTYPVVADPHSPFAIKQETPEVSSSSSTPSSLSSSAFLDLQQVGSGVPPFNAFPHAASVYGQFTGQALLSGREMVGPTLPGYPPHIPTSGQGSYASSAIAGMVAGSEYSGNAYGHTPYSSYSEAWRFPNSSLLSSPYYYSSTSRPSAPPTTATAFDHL
Chain of 26S proteasome non-ATPase regulatory subunit 14 (O00487 whole entry): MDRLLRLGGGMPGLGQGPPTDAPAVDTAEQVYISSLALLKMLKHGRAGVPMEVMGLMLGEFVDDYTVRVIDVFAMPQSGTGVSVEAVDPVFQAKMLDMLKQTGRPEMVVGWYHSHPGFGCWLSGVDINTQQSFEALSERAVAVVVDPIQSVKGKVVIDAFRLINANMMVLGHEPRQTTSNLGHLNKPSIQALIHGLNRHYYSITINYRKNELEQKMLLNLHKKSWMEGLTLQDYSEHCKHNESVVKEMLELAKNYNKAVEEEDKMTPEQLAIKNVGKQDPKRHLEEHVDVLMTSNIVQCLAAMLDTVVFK
Chain of Multidrug resistance protein CDR2 (P78595 whole entry): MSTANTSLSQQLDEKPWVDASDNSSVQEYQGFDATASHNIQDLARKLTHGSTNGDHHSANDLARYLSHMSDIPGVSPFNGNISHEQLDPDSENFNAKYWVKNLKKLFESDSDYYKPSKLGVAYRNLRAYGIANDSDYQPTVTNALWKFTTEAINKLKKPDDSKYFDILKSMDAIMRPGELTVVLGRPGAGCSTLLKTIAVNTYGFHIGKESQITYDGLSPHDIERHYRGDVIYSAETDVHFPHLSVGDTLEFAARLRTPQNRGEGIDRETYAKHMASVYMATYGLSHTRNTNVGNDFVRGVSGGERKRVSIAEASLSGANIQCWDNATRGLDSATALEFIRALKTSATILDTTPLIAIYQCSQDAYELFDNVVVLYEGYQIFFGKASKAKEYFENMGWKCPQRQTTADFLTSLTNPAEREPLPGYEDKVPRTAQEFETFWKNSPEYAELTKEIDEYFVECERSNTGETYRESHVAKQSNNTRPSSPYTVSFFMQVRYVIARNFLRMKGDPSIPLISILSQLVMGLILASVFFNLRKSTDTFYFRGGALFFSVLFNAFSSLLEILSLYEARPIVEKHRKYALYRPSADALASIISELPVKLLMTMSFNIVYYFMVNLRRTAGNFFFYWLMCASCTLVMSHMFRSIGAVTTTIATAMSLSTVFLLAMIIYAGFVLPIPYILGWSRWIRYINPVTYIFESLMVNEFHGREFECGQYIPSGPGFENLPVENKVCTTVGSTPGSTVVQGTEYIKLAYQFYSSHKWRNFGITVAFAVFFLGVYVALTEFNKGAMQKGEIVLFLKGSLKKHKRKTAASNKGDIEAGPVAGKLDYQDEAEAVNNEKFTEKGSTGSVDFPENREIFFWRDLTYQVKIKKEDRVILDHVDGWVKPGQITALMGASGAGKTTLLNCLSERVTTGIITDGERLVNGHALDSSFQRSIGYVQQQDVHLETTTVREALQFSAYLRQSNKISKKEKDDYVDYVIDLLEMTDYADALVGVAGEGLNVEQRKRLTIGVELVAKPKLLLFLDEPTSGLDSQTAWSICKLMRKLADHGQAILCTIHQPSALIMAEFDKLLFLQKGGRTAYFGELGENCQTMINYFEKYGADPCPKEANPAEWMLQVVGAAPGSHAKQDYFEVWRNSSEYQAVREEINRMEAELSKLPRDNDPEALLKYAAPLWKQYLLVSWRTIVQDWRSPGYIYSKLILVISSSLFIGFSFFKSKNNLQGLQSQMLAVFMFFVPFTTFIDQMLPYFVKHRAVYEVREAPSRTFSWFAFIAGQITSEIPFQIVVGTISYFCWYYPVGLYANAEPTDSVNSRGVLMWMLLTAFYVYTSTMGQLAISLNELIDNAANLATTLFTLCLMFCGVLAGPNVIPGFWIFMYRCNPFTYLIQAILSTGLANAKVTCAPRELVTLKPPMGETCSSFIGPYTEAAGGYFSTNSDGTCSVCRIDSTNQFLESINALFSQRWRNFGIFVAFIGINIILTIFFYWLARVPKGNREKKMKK
Chain of Integrin alpha-4 (P13612 whole entry): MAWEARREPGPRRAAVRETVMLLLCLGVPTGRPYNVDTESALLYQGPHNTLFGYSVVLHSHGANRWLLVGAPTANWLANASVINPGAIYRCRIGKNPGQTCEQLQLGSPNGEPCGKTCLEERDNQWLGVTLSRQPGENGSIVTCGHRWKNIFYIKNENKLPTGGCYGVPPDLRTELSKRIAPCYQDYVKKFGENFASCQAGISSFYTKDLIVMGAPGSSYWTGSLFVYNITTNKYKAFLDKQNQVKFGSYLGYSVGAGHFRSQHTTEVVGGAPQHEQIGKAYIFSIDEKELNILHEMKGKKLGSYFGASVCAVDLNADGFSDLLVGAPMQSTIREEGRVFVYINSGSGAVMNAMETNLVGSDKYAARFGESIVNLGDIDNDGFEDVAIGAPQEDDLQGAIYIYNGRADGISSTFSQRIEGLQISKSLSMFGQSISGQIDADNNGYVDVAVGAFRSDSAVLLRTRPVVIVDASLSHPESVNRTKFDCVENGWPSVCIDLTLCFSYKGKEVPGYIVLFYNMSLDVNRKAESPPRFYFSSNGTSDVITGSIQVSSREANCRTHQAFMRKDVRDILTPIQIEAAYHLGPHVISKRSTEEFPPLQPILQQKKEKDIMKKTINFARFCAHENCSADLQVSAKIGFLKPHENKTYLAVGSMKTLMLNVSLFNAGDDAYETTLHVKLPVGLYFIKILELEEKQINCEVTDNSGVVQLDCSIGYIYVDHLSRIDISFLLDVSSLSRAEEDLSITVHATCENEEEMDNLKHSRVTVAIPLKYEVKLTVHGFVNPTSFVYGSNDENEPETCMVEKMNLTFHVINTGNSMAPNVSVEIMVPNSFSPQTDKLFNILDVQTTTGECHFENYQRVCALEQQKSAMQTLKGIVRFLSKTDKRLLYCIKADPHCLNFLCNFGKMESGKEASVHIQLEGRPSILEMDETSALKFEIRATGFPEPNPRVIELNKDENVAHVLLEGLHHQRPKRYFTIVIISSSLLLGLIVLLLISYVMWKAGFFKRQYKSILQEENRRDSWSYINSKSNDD
Chain of Melanocortin receptor 4 (P32245 whole entry): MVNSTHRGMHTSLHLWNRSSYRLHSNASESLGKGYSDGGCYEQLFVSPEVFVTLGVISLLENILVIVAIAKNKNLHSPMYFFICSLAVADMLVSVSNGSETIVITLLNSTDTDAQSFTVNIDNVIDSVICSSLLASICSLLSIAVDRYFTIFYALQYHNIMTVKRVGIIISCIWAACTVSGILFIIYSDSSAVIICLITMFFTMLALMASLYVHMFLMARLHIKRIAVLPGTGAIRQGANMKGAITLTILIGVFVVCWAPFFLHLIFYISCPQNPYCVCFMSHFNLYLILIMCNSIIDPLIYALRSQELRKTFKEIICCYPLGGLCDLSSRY
Chain of E3 ubiquitin-protein ligase Mdm2/Protein Mdm4 (Q00987 whole entry): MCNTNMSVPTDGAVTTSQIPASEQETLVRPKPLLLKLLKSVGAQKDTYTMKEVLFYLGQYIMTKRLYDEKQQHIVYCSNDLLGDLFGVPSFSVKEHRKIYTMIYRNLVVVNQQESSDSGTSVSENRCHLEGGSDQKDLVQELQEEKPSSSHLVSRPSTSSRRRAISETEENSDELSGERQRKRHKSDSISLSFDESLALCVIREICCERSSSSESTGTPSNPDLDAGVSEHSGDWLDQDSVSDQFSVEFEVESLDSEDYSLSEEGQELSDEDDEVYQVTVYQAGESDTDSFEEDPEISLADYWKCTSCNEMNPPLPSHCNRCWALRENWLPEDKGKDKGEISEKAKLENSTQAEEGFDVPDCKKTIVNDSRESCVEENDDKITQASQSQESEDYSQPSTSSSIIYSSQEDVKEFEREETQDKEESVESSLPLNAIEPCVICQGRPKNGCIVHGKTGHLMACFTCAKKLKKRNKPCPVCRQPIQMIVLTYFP
Chain of E3 ubiquitin-protein ligase Mdm2/Protein Mdm4 (O15151 whole entry): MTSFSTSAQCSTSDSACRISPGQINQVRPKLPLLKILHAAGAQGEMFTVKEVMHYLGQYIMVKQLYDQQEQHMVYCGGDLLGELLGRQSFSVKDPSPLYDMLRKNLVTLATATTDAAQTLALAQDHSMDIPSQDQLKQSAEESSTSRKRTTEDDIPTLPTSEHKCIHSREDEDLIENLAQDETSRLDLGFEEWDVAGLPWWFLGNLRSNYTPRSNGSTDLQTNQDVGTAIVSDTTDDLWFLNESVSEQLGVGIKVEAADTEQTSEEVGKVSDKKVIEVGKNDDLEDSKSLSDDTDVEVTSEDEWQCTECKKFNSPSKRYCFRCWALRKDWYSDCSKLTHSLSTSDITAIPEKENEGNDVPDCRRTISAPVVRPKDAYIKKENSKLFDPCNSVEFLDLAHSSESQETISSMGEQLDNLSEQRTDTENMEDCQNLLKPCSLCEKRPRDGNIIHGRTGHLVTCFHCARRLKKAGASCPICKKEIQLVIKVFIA

## Cc1ccc(-c2cc(C(=O)N/N=C/c3c(C)nn(-c4ccccc4)c3C)[nH]n2)s1
[1]
  EC50: 6.26 µM (inconclusive)
[2]
  EC50: 6.08 µM (active)
[3]
  EC50: 20 µM (inconclusive)
[4]
  EC50: 0.413 µM (active)
[5]
  EC50: 1.23 µM (active)
[6]
  EC50: 0.509 µM (inconclusive)
[7]
  EC50: 2.69 µM (inconclusive)
[8]
  EC50: 1.71 µM (active)
[9]
  EC50: 1.16 µM (inconclusive)
[10]
  EC50: 0.396 µM (inconclusive)
[11]
  EC50: 1.38 µM (active)
[12]
  EC50: 4.24 µM (active)
[13]
  EC50: 0.806 µM (active)
[14]
  EC50: 11.6 µM (active)
[15]
  EC50: 46.3 µM (inconclusive)
[16]
  EC50: < 0.1 µM (active)

## CCOC(=O)c1ccc(Nc2nc(N)c3cc(OC)c(OC)cc3n2)cc1
[17]
  IC50: > 79 µM (inactive)
[18]
  IC50: > 80 µM (inactive)

## COc1ccc(-c2sc3ccccc3c2-c2ccc(OCCN(C)C)cc2)cc1
[19]
  AC50: 3.45 µM (active)
[20]
  AC50: 1.69 µM (active)
[21]
  EC50: 57.1 µM (active)
[22]
  EC50: > 57 µM (inactive)
[23]
  AC50: 8.01 µM (active)
[24]
  EC50: > 89.2 µM (inactive)
[25]
  AC50: 13 µM (active)
[26]
  IC50: > 20 µM (inactive)

## O=C(CS(=O)(=O)Cc1ccccc1)N1CCc2ccccc21
[27]
  EC50: 14.1 µM (active)

## CCCN1CCN(CCCNC(=O)c2cc3c(s2)-c2c(C)cccc2OC3)CC1
[28]
  CC50: 28.4 µM (active)
[29]
  IC50: 10.4 µM (active)
[30]
  CC50: 12.3 µM (active)
[31]
  IC50: > 40 µM (active)
[32]
  CC50: 12.4 µM (active)
[26]
  IC50: > 20 µM (inactive)

## COc1cc(/C=C2/SC(=S)N(c3c(C)n(C)n(-c4ccccc4)c3=O)C2=O)ccc1O
[33]
  IC50: 68.1 µM (active)
[34]
  IC50: > 32 µM
[35]
  IC50: 24.4 µM (active)
[36]
  EC50: 13 µM (active)
[37]
  IC50: > 55.7 µM (not active)
[38]
  IC50: 7.99 µM (active)
[39]
  IC50: 43.7 µM (active)
[40]
  IC50: 12.7 µM (active)
[41]
  IC50: 62.4 µM (active)
